Data published in patent publication US5840893A, “Compounds for treating infectious diseases” (priority 1996, dated 1998).
Counter-ions that a name gives are not always drawn. Like-named read-outs stand apart in the source and are kept apart here.

Experiments:
[1] = tested on: HIV-1; assay: Viral production in HIV-1-infected cultured monocytes at fixed 100 nM compound (Table II); type: cell-based; conditions: Human immunodeficiency virus 1, Monocyte, read-out: Viral Production (percentage of untreated control)
Description: Alternatively, the compounds may all be compared for inhibition of HIV replication at a fixed concentration. Presented in Table II are compounds that were used at a concentration of 100 nM to inhibit the production of HIV-1 in cultured monocytes infected with HIV-1 10 days prior to assay (10 ng of p24/10^6 cells) . The production of HIV-1 in each treated culture is reported as percentage of untreated control.

[2] = tested on: HIV-1; assay: AZT and Compound No. 2 in combination on HIV-1 infected monocyte cultures (RT activity); type: cell-based, HIV-1 in human monocyte cultures; conditions: for RT activity: (-) No. 2
Description: Primary human monocytes were obtained from peripheral blood by Ficoll-Hypaque centrifugation and adherence to plastic as described previously. Gartner S. P., et al., 1986, Science 233:215. Briefly, after Ficoll-Hypaque (Pharmacia) separation, PBMCs were washed 4 times with DMEM (the last wash was done at 800 rpm to remove platelets) and resuspended in monocyte culture medium [DMEM supplemented with 1 mM glutamine, 10% heat-inactivated human serum, 1% penicillin+streptomycin mixture (Sigma)] at a density of 6×10^6 cells/ml. Cells were seeded in 24-well plates (1 ml per well) and incubated for 2 h at 37° C., 5% CO2. Following incubation, cells were washed 3 times with DMEM to remove non-adherent cells and incubation was continued in monocyte culture medium supplemented with 250 U/ml human M-CSF (Sigma). Cells were allowed to mature for 7 days prior to infection with the monocyte-tropic strain, HIV-1ADA. Nuovo, G. J., et al., 1992, Diagn. Mol. Pathol. 1:98. Two hours after infection, cells were washed with medium and cultured in RPMI supplemented with 10% human serum. In experiments where PCR analysis was performed, virus was pretreated with RNAse-free DNAse (Boehinger-Mannheim)for 2 h at room temperature and then filtered though a 0.2 μm pore nitrocellulose filter prior to infection.
For the reverse transcriptase (RT) assay, 10 μl of culture supernatant was added to 40 μl of reaction mixture (final composition was 50 mM Tris-HCl, pH 7.8; 20 mM KCl; 5 mM MgCl2; 1 mM DTT; 0.1% Triton X-100; 0.2 OD/ml polyA; 0.2 OD/ml oligo(dT)12-18; and 40 μCi/ml ^3 H-dTTP (76 Ci/mmol, DuPont) and incubated 2 hr at 37° C. 5 μl of the reaction mixture was then spotted onto the DE 81 (Whatman) paper. Paper was air dried and washed 5 times with 5% Na2 HPO4, followed by rinsing with distilled water. After air drying, paper was put on a Flexi Filter plate (Packard), covered with scintillation fluid and counted in a Top Count Microplate Counter (Packard). Results are expressed as counts per minute in 1 ml of supernatant (cpm/ml).
In view of these premises, the effects on HIV-1 replication in human monocyte cultures of the various concentrations of AZT, alone or in combination with 100 nM Compound No. 2, were tested using the protocols of Sections 6.2.1 and 6.2.2. Drugs were added to the monocyte cultures together with HIV-1 at about 10^5 TCID/ml. The concentration of drugs was maintained on refeeding. HIV-1 replication was assessed by assay of the supernatant for reverse transcriptase activity. The results are expressed as mean±std. dev. (cpmx10^-3) in Table V.

[3] = tested on: Plasmodium falciparum clone Dd2; assay: Antimalarial activity in vitro, hypoxanthine incorporation, clone Dd2; type: cell-based; conditions: for IC50: Plasmodium falciparum, DD2, read-out: IC50 ± standard deviation
Description: The antimalarial activity of the compounds was determined essentially as described in Desjardins et al. supra. Fifty Al of various concentrations of a compound of the invention, chloroquine, or pyrimethamine were added to the wells of microtiter plates, followed by 200 Al of ring-stage, synchronized, P. falciparum-infected erythrocytes (final hematocrit=1.5%, final parasitemia=1-5%). The plates were incubated for 24 hr in a candle jar kept at 37° C., and then 25 μl of [^3 H]-hypoxanthine (Amersham, Arlington Heights, Ill.; 2.5 μl Ci/well) was added. The plates were then incubated for a further 24 hr, before harvesting onto Unifilter-96 GF/C filter-microplates (Packard; Meriden, Conn.). Twenty-five μl of Microscint scintillation fluid (Packard) was added to each well of the filter-microplate, which was subsequently counted in a Top-count microplate scintillation counter (Packard). The percent of [^3 H] -hypoxanthine uptake relative to control infect-erythrocytes was used to determine the IC50 value for the compounds by non-linear regression for LD50 determination.
The Dd2 clone of P. falciparum, which was both chloroquine and pyrimethamine resistant, was utilized to compare the antimalarial activity of the remaining CNI compounds (Table VIII).

[4] = in vitro; type: in vitro ADME, mouse (ND4 Swiss Webster); conditions: for number of metabolites: mouse liver post-mitochondrial supernatant, NADPH
Description: Several female ND4 Swiss Webster mice were euthanized by carbon dioxide inhalation and the livers excised and rinsed with ice cold phosphate buffered saline (pH 7.4). The livers were minced, gently homogenized in 50 mM phosphate buffer (pH 7.4) with a Dounce homogenizer, and centrifuged at 9600×g for 20 min. The post-mitochondrial supernatant was kept, glycerol added to 20%, and frozen at -70° C. in 1.0 ml aliquots until used. For each incubation, 1.0 ml of a 1.0 mg/ml drug solution was added to 3.0 ml of 50 mM phosphate buffer (pH 7.4), 1.0 ml of 2 mg/ml NADPH in 50 mM phosphate (pH 7.4), and 1.0 ml of the post-mitochondrial supernatant. Five hundred μl of each incubate was then immediately transferred to an ice-cold tube to provide the zero-time sample, and addition 500 μl aliquots removed to ice-cold tubes at 8, 15, 30, and 60 min. The samples were then extracted, and analyzed by HPLC as described in section 7.1. Control incubations were also performed where drug or post-mitochondrial supernatant was omitted. […] Peaks in the CNI compound incubations which increased over time, and were not present in control samples lacking the enzyme preparation were treated as putative metabolites.

[5] = tested on: mice; assay: Toxicity study: median lethal dose in mice, i.p.; type: in vivo
Description: The doses of compounds of the invention found to be lethal to 50% of the mice (LD50) were determined by intraperitoneal injection of groups of five animals with increasing doses of each compound. CNI-0294 was administered from 0, 2, 10, 20, 40, 80, 160, 320, 640, 1280 mg/kg in 0.5 ml of water/HCl; CNI-1594 at 0, 2.4, 5, 10, 20, 40, 80 mg/kg in 0.5 ml of water/HCl; CNI-1794 at 0, 20, 50, 80 mg/kg in 0.5 ml of water/HCl; and CNI-1894 at 0, 10, 20, 40, 80, 240, 480, 960 mg/kg in water/HCl. […] The percentage of animals in each group which died were utilized to calculate the LD50 by non-linear curve fitting with the Enzfit software (Elsevier Bioscience; Cambridge, UK) programmed with the Chou equation (Chou 1976, J Theor Biol 39:253-276)).
The compounds (FIGS. 4A-E), were screened for toxicity via a modified LD50 assay procedure as described above in an outbred strain of mice.

[6] = i.p., 50 mg/kg, water
Description: (§1) Standard addition curves for each test compound were constructed by adding increased amounts of drug to mouse or human A^+ plasma (Long Island Blood Services; Melville, N.Y.). […] The eluted sample was reduced to dryness in a rotary evaporator and resuspended in 1.0 ml Buffer A.
(§2) Female ND4 Swiss Webster mice (21-24 g) were obtained from Harlan Sprague Dawley (Indianapolis, Ind.) and randomly placed in groups of five in cages with free access to food and water. […] The other CNI compounds were administered intraperitoneally or by oral gavage as a solution in water titrated with sufficient HCl to dissolve the drug. At various time points, ranging from 5 min to 4 days, a single group of animals was euthanized by carbon dioxide inhalation and bled by cardiac puncture using heparin as an anticoagulant. The blood from the five mice in the group was pooled and centrifuged at 14000×g for 10 min. The volume of plasma was measured, and equal volume of Buffer A added, and the mixture extracted and analyzed as described above, except that the dried eluates were resuspended in 200 μl Buffer A and 100 μl was injected onto the high performance liquid chromatography (HPLC) system.
(§3) The area under the plasma concentration-time curve (AUC) was determined, and bioavailability was measured as AUCoral /AUCi.p.. […] The volume of distribution (VD) was calculated as dose/B, and the total clearance rate (Cltot) calculated as β*VD. Cmax and tmax are the maximal plasma concentration and time of this measurement, respectively.

[7] = in vivo; conditions: mouse, plasma, ip, 50 mg/kg
Description: as §1, §2, §3

[8] = tested on: HIV-1; assay: Inhibition of HIV-1 replication in cultured macrophages (Table I); type: cell-based; conditions: Human immunodeficiency virus 1, Macrophage; 50% inhibition of viral growth, RT or p24, macrophages
Description: A quantitative measurement of the activity of the compounds of the invention to block the replication of HIV-1 in non-dividing cells can be determined by culture of a macrophage-tropic strain of HIV-1 on peripheral blood-derived macrophages. The cells are cultured for 5-6 days prior to infection in a medium consisting of DMEM supplemented with 10% type A/B human serum and 200 U/ml Macrophage Colony Stimulating Factor, with half the medium changed after 3 days, to reach a density of about 10^6 cells per 5 ml well. A macrophage-tropic viral stock may be grown on these cells. The concentration of infectious particles in the stock is estimated by measurement of p24 antigen concentration.
To test the effect of compounds of the invention on HIV- 1 infection in the above-described culture system, the medium is removed and replaced with medium containing HIV-1 at a concentration of 1 ng of p24 (10^4 TCID50 /ml (TCID=tissue culture infectious doses)) and a known concentration of the compound of the invention (the inhibitor). After 24 hours, the cultures are washed to remove non-adherent virus and the culture is re-fed with medium containing the inhibitor at the desired concentration. The amount of replication of HIV-1 is estimated by an assay of the reverse transcriptase activity or by an assay of the concentration of p24 antigen in the culture medium every 2-3 days throughout the post-infection period. In a preferred embodiment the anti-HIV potency of the candidate drug is measured by comparison of the concentration of reverse transcriptase (RT) or of p24 antigen in the medium of the treated and control cultures at the time of the peak of these values in non-treated control cultures, that is about day 5 or 6 post-infection. Repetition at various levels of inhibitor allows for the calculation of the concentration of inhibitor that achieves 50% inhibition of viral growth, IC50. Table I discloses the IC50 of various inhibitors.

[9] = 100 nM compound, monocytes infected 10 days prior, 10 ng p24/10^6 cells

Work on CC(=O)c1cccc(C(C)=O)c1N [2,6-diacetylaniline] yielded an activity at 0.1 µM [1, 9] of 28%.
Work on CC(=O)c1cncc(C(C)=O)c1 [3,5-diacetylpyridine] yielded an activity at 0.1 µM [1, 9] of 58%.
Compound Cc1cn([C@H]2C[C@H](N=[N+]=[N-])[C@@H](CO)O2)c(=O)[nH]c1=O [AZT] has an inhibition at 10 pM ([2]; Human immunodeficiency virus 1, Monocyte, 264 h, read-out: reduction in RT activity) of about 20%, an RT activity ([2]; day-7, AZT 10 pM) of 0.92 ± 0.21 cpmx10^-3 and an RT activity ([2]; day-7, AZT 100 pM) of 0.79 ± 0.14 cpmx10^-3. It also gave an RT activity ([2]; day-7, AZT 1 nM) of 0.60 ± 0.28 cpmx10^-3, an RT activity ([2]; day-7, AZT 10 nM) of 0.05 ± 0.02 cpmx10^-3 and an RT activity ([2]; day-11, AZT 10 pM) of 1.63 ± 0.81 cpmx10^-3. The RT activity ([2]; day-11, AZT 100 pM) was 1.34 ± 0.59 cpmx10^-3, the RT activity ([2]; day-11, AZT 1 nM) was 1.07 ± 0.49 cpmx10^-3 and the RT activity ([2]; day-11, AZT 10 nM) was 0.08 ± 0.03 cpmx10^-3.
In the case of CC(=O)c1cc(N)cc(C(C)=O)c1 [CNI-1894, 3,5-diacetylaniline], the activity at 0.1 µM [1, 9] is reported as 20%, the IC50 [3] is reported as over 200 µM and the “antimalarial activity at the highest concentration tested” value ([3]; clone Dd2, 200 μM) is reported as “inactive at the highest concentration tested”. For the same compound, the number of metabolites [4] was “one minor and one major metabolite”, the metabolised at 1 h ([4]; mouse, liver post-mitochondrial supernatant, 60 min incubation, by peak area, read-out: drug altered (metabolic conversion)) was 17.3% and the “LD50 (median lethal dose)” value [5] was 258.64 ± 1.37 mg/kg. The “signs and time of toxic reactions / death” value [5] was “died 2-3 days post injection, and showed no sign of any immediate toxicity”, the tolerability [5] was “reasonably well tolerated” and the “A (zero time intercept, distribution phase)” value [6] was 14.93 µg/mL. The “B (zero time intercept, elimination phase)” value [6] was 0.15 µg/mL, the VD [6] was 6.60 L and the t1/2α [6] was 0.58 h. The t1/2β [6] was 23.10 h, the α [6] was 1.19 h⁻¹ and the CL/F [7] was 3.3 mL/min. For the same compound, the k el [7] was 8.33e-06 s⁻¹.
CC(=O)c1cc(NC(=N)NC(=N)N)cc(C(C)=O)c1 [Compound No. 12, N-(3,5-diacetylphenyl)biguanide hydrochloride] gave an activity at 0.1 µM [1, 9] of 12%.
Compound CC(=O)c1cc(Nc2nc(N)nc(N)n2)cc(C(C)=O)c1 [Compound No. 13, 2-(3,5-diacetylphenyl)amino-4,6-diamino-1,3,5-triazine] has an activity at 0.1 µM [1, 9] of 14%.
Work on CC(=O)c1cccc(Nc2cc(C)[n+](C)c(N)n2)c1 [Compound No. 14, 2-amino-4-(3-acetylphenyl)amino-1,6-dimethylpyrimidinium iodide] yielded an IC50 [8] of 0.01 µM.
For CC(=O)c1ccc(Nc2cc(C)nc(N)n2)cc1 [Compound No. 17, 2-amino-4-(4-acetylphenyl)amino-6-methylpyrimidine], the activity at 0.1 µM [1] was 20%, the “LD50 (median lethal dose)” value [5] was 48.93 ± 0.12 mg/kg and the “LD50 compared with CNI-1594” value [5] was “identical to that for CNI-1594”. For the same compound, the “signs and time of toxic reactions / death” value [5] was “suggested a lethal neurotoxicity”.
Compound Cc1cc(Nc2ccccc2)nc(N)n1 [Compound No. 45, 4-phenylamino-2-amino-6-methylpyrimidine] has an IC50 [3] of 25.1 ± 0.72 µM.
For N=C(N)c1ccc(OCCCCCOc2ccc(C(=N)N)cc2)cc1 [pentamidine, reference compound], the number of metabolites [4] was “seven”.
